Measurements published in article PMC9223267, “Serine hydroxymethyltransferase as a potential target of antibacterial agents acting synergistically with one-carbon metabolism-related inhibitors” (Communications Biology, 2022).
pEC50: −log10 of the molar value. “And” between values parts separate entries of the source, which are not always exact repeats. Equal entries are not always repeated. “Also recorded” adds a separate entry of the source. Where two headings read alike, the source gives them in different places.

What was measured:
E. faecium [1] = assay: Antibacterial activity evaluation (turbidity, OD600); format: cell-based, Enterococcus faecium (JCM5804); conditions: Enterococcus faecium, JCM5804, E. faecium JCM5804
Experimental: (§1) E. faecium and E. faecalis were diluted to turbidity equivalents that matched 1.0 McFarland (McF) standard in distilled water (S. aureus and E. coli were also diluted to 0.5 McF), and additionally diluted 1:200 in Mueller–Hinton (MH) broth. The designated concentrations of the tested compounds were prepared by ten-fold serial dilutions directly in 96-well microtiter plates (IWAKI, Shizuoka, Japan), as previously described. […] The other compounds were serially diluted from 20 μM downwards (final concentration, 10 μM). […] Positive control wells included bacteria without any compound, and the negative control wells only contained MH broth. […] The optical density at 600 nm (OD600) was measured using a GloMax microtiter plate reader (Promega, WI, USA), and the EC50 values of each test compound and standard error were calculated by Microsoft Excel function, AVERAGE and STDEV/SQRT.

E. faecalis = assay: as above; format: cell-based, Enterococcus faecalis (JCM7783); conditions: Enterococcus faecalis, E. faecalis JCM7783
Experimental: as §1

S. aureus = assay: as above; format: cell-based, Staphylococcus aureus (ATCC29213); conditions: Staphylococcus aureus, S. aureus ATCC29213
Experimental: as §1

E. coli = assay: as above; format: cell-based, Escherichia coli (ATCC25922); conditions: Escherichia coli, E. coli ATCC25922
Experimental: as §1

E. faecium [2] = assay: Bacterial viability assay (Microbial Viability Assay Kit-WST, OD450); format: cell-based, Enterococcus faecium; conditions: for Relative bacterial viability: single values
Experimental: Living E. faecium were determined using the Microbial Viability Assay Kit-WST (DOJINDO, Tokyo, Japan). […] Positive control wells included bacteria seeded into MH broth without compounds, and the negative control wells contained MH broth only. […] Five microlitres of the colouring reagent were added to each well of the 96-well plate every 2 h after starting incubation with each compound.

Caski cells = assay: Cell cytotoxicity assay (Cell Counting Kit-8, 5 days); format: cell-based, human; conditions: with each cell line (Caski, Hep-2 and Calu-3)
Experimental: After serial dilution, 100 μL of FBS-containing medium including the cells was added to each well of the plate. […] All CC50 determining assays were conducted in duplicate or triplicate[39],[40].

E. faecium [3] = assay: Antibacterial assay with an excess concentration of biomolecules (Ser, Gly, inosine, dT, FA); format: cell-based, Enterococcus faecium (JCM5804); conditions: Enterococcus faecium, JCM5804, E. faecium JCM5804; for pEC50: read-out: EC50; for EC50: read-out: pEC50 ± S.E. (converted)
Experimental: as §1
The ratio of the control EC50 (no competitors added) to the experimental EC50 (competitors added) was calculated for each test substance.

efmSHMT [4] = format: binding, Enterococcus faecium; conditions: DSF; final drug concentration 50 μM
Experimental: Protein samples were prepared as 20 μL aliquots containing 0.1 mg/mL protein (efmSHMT/ecSHMT), 1 μL of the ligand in DMSO (final drug concentration, 50 μM) and 2% or 4% SYPRO Orange (Invitrogen, MA, USA). […] Melting points were evaluated as the half-point of the maximum intensity of each curve.

efmSHMT [5] = molecular target: efmSHMT (Enterococcus faecium, UniProt I3U4H4, M1V); assay: biochemical; format: binding; conditions: 5 μM efmSHMT; 10 mM Gly and 100 μM Ser; Cheng-Prusoff
Sequence of efmSHMT (Enterococcus faecium, UniProt I3U4H4, M1V) (I3U4H4 whole entry M1V): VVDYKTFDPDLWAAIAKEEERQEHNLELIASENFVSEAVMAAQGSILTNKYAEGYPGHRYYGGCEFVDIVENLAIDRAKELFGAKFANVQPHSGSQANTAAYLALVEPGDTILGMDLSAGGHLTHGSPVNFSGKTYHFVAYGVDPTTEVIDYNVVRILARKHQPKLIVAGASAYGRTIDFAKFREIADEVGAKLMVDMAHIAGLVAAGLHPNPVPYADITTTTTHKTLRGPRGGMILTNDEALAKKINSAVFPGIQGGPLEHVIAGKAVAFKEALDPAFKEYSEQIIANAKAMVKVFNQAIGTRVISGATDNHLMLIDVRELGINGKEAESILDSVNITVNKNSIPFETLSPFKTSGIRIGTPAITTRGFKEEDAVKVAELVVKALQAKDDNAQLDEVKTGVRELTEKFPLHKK
Experimental: After adding Me-THF, the efmSHMT solution was incubated for 30 min at room temperature. The optical density at 500 and 600 nm (OD500 and OD600) were then measured using a nanodrop spectrophotometer[24],[25]. OD600 was used as the background. After detection, each concentration of inhibitor was added to the efmSHMT solution and incubated for 30 min at room temperature. OD500 and OD600 were measured. The relative OD500 intensity was calculated as relative OD500 = (OD500 – OD600)/(MAXOD500 – OD600), where MAXOD500 is the average OD500 value in the presence of 1000, 2000 and 4000 μM Me-THF without inhibitors. […] Here, IC50 is the concentration of inhibitor added to the efmSHMT solution and [Me-THF] is the EC50 in the presence of the inhibitor concentration. [EC50 without inhibitor] is the EC50 of Me-THF in the absence of the inhibitor.

[6] = read-out: pEC50 ± S.E. (converted)

For `CN(Cc1cnc2nc(N)nc(N)c2n1)c1ccc(C(=O)N[C@@H](CCC(=O)O)C(=O)O)cc1` [MTX, methotrexate], the pEC50 (E. faecium [1]; read-out: EC50) was 8.44, the EC50 (E. faecium [1]; [6]) was 3.98 nM and the pEC50 (E. faecalis; read-out: EC50) was 4.85. The EC50 (E. faecalis; [6]) was 15800 nM, the pEC50 (S. aureus; read-out: EC50) was under 4.00 and the EC50 (S. aureus; [6]) was over 100000 nM. For the same compound, the pEC50 (E. coli; read-out: EC50) was under 4.00, the EC50 (E. coli; [6]) was over 100000 nM and the Relative bacterial viability (E. faecium [2]; 2 nM, 0 hours) was 0.02233 and 0.0177 and 0.02678 and 0.02266 and 0.01761 and 0.017 and 0.0195 and 0.01799. The Relative bacterial viability (E. faecium [2]; 2 nM, 2 hours) was 0.03007 and 0.03198 and 0.04012 and 0.03501 and 0.02569 and 0.02735 and 0.02947 and 0.02784, the Relative bacterial viability (E. faecium [2]; 2 nM, 6 hours) was 0.8015 and 0.7552 and 0.8948 and 0.8943 and 0.5687 and 0.5754 and 0.5661 and 0.5425 and the Relative bacterial viability (E. faecium [2]; 2 nM, 8 hours) was 0.6487 and 0.7535 and 0.8184 and 0.7635 and 0.7144 and 0.6621 and 0.6673 and 0.7812. The Relative bacterial viability (E. faecium [2]; 2 nM, 10 hours) was 0.7053 and 0.6673 and 0.7036 and 0.6902, the Relative bacterial viability (E. faecium [2]; 2 nM, 12 hours) was 0.8527 and 0.9211 and 0.863 and 0.9139 and 0.786 and 0.828 and 0.8102 and 0.8671 and the Relative bacterial viability (E. faecium [2]; 20 nM, 0 hours) was 0.02944 and 0.02382 and 0.02242 and 0.01876 and 0.02362 and 0.02115 and 0.02309 and 0.02203. For the same compound, the Relative bacterial viability (E. faecium [2]; 20 nM, 2 hours) was 0.04282 and 0.03899 and 0.03091 and 0.03386 and 0.03007 and 0.02907 and 0.03321 and 0.0351, the Relative bacterial viability (E. faecium [2]; 20 nM, 4 hours) was 0.09761 and 0.08481 and 0.06333 and 0.08156 and 0.05837 and 0.05915 and 0.09197 and 0.0766 and the Relative bacterial viability (E. faecium [2]; 20 nM, 6 hours) was 0.09779 and 0.1224 and 0.09629 and 0.09367 and 0.1125 and 0.1318 and 0.1324 and 0.1243. For the same compound, the Relative bacterial viability (E. faecium [2]; 20 nM, 8 hours) was 0.09766 and 0.1007 and 0.1109 and 0.1082 and 0.07161 and 0.0792 and 0.1047 and 0.1064, the Relative bacterial viability (E. faecium [2]; 20 nM, 10 hours) was 0.1166 and 0.1064 and 0.08667 and 0.1003 and 0.08673 and 0.1012 and 0.1144 and 0.09737 and the Relative bacterial viability (E. faecium [2]; 20 nM, 12 hours) was 0.09054 and 0.1107 and 0.09534 and 0.1014 and 0.09177 and 0.09711 and 0.09672 and 0.1035. For the same compound, the pEC50 (E. faecium [2]; Enterococcus faecium, relative bacterial viability after 14 h incubation) was 8.08, the “selectivity index (S.I.): CC50 against each cell line / EC50 against E. faecium” value (Caski cells) was “less selective than (+)-SHIN-1, TMP and PMX” and the pEC50 (E. faecium [3]; 1 mM Inosine) was 8.62. It also gave an EC50 (E. faecium [3]; 1 mM Inosine) of 2.51 nM, a pEC50 (E. faecium [3]; 1 mM deoxythymidine) of under 4.00 and an EC50 (E. faecium [3]; 1 mM deoxythymidine) of over 100000 nM. It also gave a pEC50 (E. faecium [3]; 10 mM Glycine) of 8.55, an EC50 (E. faecium [3]; 10 mM Glycine) of 2.51 nM and a pEC50 (E. faecium [3]; 100 mM Serine) of 8.59. For the same compound, the EC50 (E. faecium [3]; 100 mM Serine) was 2.51 nM, the pEC50 (E. faecium [3]; 0.1 M folate) was 5.07 and the EC50 (E. faecium [3]; 0.1 M folate) was 7940 nM. The “ΔTm (thermal stability of efmSHMT)” value (efmSHMT [4]) was “did not stabilise efmSHMT significantly” and the Ki (efmSHMT [5]) was “did not change the OD500; also recorded: did not bind”.
